Earlier results as cited in patent US12435156B2, “Methods for treating neuroblastoma with combination therapy” (MEMORIAL SLOAN-KETTERING CANCER CENTER, priority 2018, dated 2025).

Key:
[1] = not given; remark: listed apart in the source
[2] = not given; remark: listed apart in the source
[3] = human, in vivo
topoisomerase I = target: T1, topoisomerase I (Homo sapiens, UniProt P11387)
T1 sequence (P11387 1-765): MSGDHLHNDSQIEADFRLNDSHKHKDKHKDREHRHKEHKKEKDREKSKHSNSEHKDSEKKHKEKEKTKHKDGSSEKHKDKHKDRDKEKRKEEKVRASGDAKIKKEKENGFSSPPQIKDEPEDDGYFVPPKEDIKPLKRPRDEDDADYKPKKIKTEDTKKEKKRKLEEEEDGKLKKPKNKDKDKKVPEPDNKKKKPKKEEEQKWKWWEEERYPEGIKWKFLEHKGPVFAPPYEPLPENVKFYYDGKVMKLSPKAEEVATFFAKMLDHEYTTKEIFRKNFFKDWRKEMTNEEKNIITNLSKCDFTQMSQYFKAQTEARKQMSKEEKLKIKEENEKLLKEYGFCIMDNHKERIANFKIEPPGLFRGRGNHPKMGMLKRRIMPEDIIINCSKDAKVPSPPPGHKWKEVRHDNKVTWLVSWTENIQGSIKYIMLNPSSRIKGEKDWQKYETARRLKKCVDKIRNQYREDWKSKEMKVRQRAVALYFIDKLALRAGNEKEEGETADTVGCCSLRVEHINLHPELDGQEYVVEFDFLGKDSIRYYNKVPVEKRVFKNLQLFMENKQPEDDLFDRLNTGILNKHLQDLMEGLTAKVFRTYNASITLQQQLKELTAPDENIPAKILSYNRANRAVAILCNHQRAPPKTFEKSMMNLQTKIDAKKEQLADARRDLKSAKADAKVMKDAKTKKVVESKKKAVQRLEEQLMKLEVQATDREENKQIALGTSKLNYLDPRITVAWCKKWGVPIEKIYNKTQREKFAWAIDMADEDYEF

[4] = not given; remark: listed apart in the source

Compound: NC(=O)c1[nH]cnc1N [AIC]
- Exposure relative to the AUC of temozolomide (in vivo): 23%

Compound: Cn1nnc2c(C(=O)O)ncn2c1=O [temozolomide acid metabolite]
- Recovery of radioactivity in urine as this species (after temozolomide radioactive dose): 2.3%

Compound: sargramostim: Yeast-derived human recombinant granulocyte-macrophage colony stimulating factor
- Storage of liquid once the vial has been entered ([1]; 2-8° C.): up to 20 days
- pH of reconstituted solution ([1]; 250 mcg vial reconstituted with 0.5 mL sterile water, 500 mcg/mL): 7.4±0.3
- Time to administration following reconstitution ([1]; single-use 250 mcg vials, no preservative): ≤ 6 h

Compound: Cn1nnc2c(C(N)=O)ncn2c1=O [Temozolomide, 3,4-dihydro-3-methyl-4-oxoimidazo[5,1-d]-as-tetrazine-8-carboxamide]
- Mean apparent volume of distribution (% CV=13%): 0.4 L/kg
- Kinetics over the therapeutic dosing range (in vivo): linear kinetics
- Overall clearance (in vivo): about 5.5 L/hr/m^2
- Absorption after oral administration (oral): rapidly and completely absorbed
- Time of peak plasma concentrations (oral administration): 1 h
- Administered total radioactive dose recovered in feces (over 7 days): 0.8%
- Administered total radioactive dose recovered in urine (over 7 days): 37.7%
- Administered total radioactive dose recovered (over 7 days, total): About 38%
- Mean percent bound of drug-related total radioactivity (human plasma proteins): 15%
- Role of cytochrome P450 enzymes in metabolism (Cytochrome P450 enzymes): only a minor role
- Stability at physiologic pH [2]: spontaneously hydrolyzed
- Dose-limiting side effects [3]: hematologic toxicity, myelosuppression, anemia, and leukopenia

Compound: CCc1c2c(nc3ccc(O)cc13)-c1cc3c(c(=O)n1C2)COC(=O)[C@]3(O)CC [SN-38, 7-ethyl-10-hydroxycamptothecin]
- Topoisomerase I inhibitor potency/activity (topoisomerase I): much higher potency than irinotecan

Compound: CCc1c2c(nc3ccc(OC(=O)N4CCC(N5CCCCC5)CC4)cc13)-c1cc3c(c(=O)n1C2)COC(=O)[C@]3(O)CC [Irinotecan, (S)-4,11-diethyl-4-hydroxy-3,14-dioxo-3,4,12,14-tetrahydro-1H-pyrano[3′,4′:6,7]indolizino[1,2-b]quinolin-9-yl [1,4′-bipiperidine]-1′-carboxylate]
- Water solubility [4]: water-soluble
- Toxicity associated with treatment [3]: severe diarrhea, myelosuppression, and neutropenia

Compound: CCc1c2c(nc3ccc(O[C@@H]4O[C@H](C(=O)O)[C@@H](O)[C@H](O)[C@H]4O)cc13)-c1cc3c(c(=O)n1C2)COC(=O)[C@]3(O)CC [SN-38G, SN-38 glucuronide]
- Topoisomerase I inhibitor potency/activity (topoisomerase I): inactive
